Counter-ions that a name gives are not always drawn.
Assays:
human α1b-adrenoceptor = molecular target: T1, human α1b-adrenoceptor (Homo sapiens, UniProt P35368); assay: [3H]Prazosin binding, cloned human α1b-adrenoceptor in CHO cell membranes; settings: CHO membranes; read-out: Affinity (Ki) α1b, human cloned receptors
T1 construct: expressed in transfected cells
T1 sequence (P35368 1-520): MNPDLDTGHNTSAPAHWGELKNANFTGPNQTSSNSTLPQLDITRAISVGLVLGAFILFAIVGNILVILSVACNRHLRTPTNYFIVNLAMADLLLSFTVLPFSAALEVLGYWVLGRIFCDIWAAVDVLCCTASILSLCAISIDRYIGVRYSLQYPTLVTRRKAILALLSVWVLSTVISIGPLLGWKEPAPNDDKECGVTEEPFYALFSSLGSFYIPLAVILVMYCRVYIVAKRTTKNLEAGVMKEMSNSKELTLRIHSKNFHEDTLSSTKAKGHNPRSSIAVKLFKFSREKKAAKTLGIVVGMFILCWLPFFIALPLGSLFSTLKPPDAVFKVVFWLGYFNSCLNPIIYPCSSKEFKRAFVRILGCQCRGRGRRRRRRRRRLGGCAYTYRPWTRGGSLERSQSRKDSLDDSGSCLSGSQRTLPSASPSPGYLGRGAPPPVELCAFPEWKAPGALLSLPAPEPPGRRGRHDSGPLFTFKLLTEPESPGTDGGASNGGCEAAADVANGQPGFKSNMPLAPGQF
Experimental: (§1) Binding to cloned human α1-adrenoceptor subtypes was performed in membranes from CHO cells (Chinese hamster ovary cells) transfected by electroporation with DNA expressing the gene encoding each α1-adrenoceptor subtype. […] The incubation was stopped by addition of ice-cold Tris buffer and rapid filtration through 0.2% polyethyleneimine-pretreated Whatman GF/B or Schleicher & Schuell GF52 filters.
(§2) Data are expressed as mean Ki. All patents and other references cited herein are incorporated by reference in their entirety.

human α1d-adrenoceptor = molecular target: T2, human α1d-adrenoceptor (Homo sapiens, UniProt P25100); assay: [3H]Prazosin binding, cloned human α1d-adrenoceptor in CHO cell membranes; settings: read-out: Affinity (Ki) α1d, human cloned receptors
T2 construct: expressed in transfected cells
T2 sequence (P25100 1-572): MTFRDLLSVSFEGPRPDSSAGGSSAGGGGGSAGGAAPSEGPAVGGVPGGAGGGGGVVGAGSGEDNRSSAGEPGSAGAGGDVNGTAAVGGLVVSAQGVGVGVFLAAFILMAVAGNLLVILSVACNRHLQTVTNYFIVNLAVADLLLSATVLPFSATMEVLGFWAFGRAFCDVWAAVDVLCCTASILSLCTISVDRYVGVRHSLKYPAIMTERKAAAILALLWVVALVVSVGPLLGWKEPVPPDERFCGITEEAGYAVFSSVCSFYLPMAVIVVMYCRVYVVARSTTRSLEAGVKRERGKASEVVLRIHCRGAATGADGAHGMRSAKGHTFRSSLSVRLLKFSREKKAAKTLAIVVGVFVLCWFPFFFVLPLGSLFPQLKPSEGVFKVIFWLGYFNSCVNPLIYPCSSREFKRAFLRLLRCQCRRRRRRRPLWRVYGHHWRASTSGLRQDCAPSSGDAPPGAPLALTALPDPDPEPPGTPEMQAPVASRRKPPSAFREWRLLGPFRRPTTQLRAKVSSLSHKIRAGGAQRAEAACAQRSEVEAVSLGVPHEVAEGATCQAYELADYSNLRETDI
Experimental: as §1, §2

human α1a-adrenoceptor = molecular target: T3, human α1a-adrenoceptor (Homo sapiens, UniProt P35348); assay: biochemical
T3 sequence (P35348 1-466): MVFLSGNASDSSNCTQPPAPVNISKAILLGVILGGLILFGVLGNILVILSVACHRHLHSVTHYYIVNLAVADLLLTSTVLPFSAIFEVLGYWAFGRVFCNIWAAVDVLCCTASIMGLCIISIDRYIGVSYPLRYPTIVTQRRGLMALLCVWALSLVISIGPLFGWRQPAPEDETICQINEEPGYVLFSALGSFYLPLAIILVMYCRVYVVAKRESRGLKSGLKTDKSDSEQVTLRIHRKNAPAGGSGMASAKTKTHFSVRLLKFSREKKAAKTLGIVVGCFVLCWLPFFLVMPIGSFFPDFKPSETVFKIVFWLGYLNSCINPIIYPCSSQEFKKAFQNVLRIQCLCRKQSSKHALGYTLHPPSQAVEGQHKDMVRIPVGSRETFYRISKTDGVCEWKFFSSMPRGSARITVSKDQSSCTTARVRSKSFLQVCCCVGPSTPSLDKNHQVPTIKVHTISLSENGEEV

anaesthetised rats = assay: Intracavernous and blood pressure recording in rats; type: in vivo, rat; settings: for decrease of blood pressure: after injection of 1000 μg/kg intracavernous; for effect on ICP (in words): intracavernous injection; for hypotension (in words, FIG. 1): marked hypotension defined as decrease of blood pressure equal to or higher than 40%
Experimental: Rats were anaesthetised by an intraperitoneal injection of urethane (1.5 g/kg in sterile saline) and placed on an homeothermic blanket. Their temperature was maintained at 37° C. Rats were tracheotomized to facilitate spontaneous breathing and to prevent aspiration of saliva. A catheter filled with heparinized saline (25 IU/ml) was placed into the carotid to record mean blood pressure (BP, mmHg). The penis was desheathed and the corpora cavernosa were exposed. A 25-gauge stainless-steel needle was inserted into one corpus cavernosum to record intracavernous pressure (ICP in mmHg). […] Pressure catheters were connected to pressure transducers (Model 750, Elcomatic Ltd, Glasgow, UK).
Following a resting period of 10 minutes, the compound solvent was delivered intracavernously (50 μl/injection). Then, increasing doses of one compound were injected every ten minutes by the same route. Five injections (one solvent plus four cumulative doses) were performed in each rat, and five rats were used for the study of one compound. For each injection and for each compound, mean BP averaged over the ten minutes following the injection was measured. The maximal ICP value reached during the ten-minute period following an injection was also recorded. In these experiments, all the compounds tested were dissolved and diluted in propylene glycol-Sorensen solvent.

anaesthetised dogs [1] = assay: Intracavernous and blood pressure recording in dogs; settings: for increase of ICP in comparison with basal ICP values: 1000 μg/kg (1000 μg given for prazosin, phentolamine) intracavernous; for effect on ICP (in words): intracavernous injection
Experimental: (§3) Male beagle dogs were anaesthetised with pentobarbital sodium (i.v. Nembutal, 35 mg/kg for induction and 4 mg/kg/h for maintenance) and intubated with an endotracheal cuffed tube to facilitate free ventilation. A collateral of the left femoral vein was cannulated with a PE catheter for infusion of the anaesthetic. Systemic BP was monitored via a Mikro-tip 6F (Millar Instruments) pressure transducer introduced into the aortic arch through the right common carotid artery. ICP was measured by means of a 20-gauge needle placed into the left or right corpus cavernosum and the same needle was used for intracavernous injection of the drugs. The needle was attached to a catheter filled with heparinized saline (25 IU/mL). […] The compounds to be tested were injected intracavernously in a volume of 0.5 ml and, after each injection, the needle was flushed with 0.5 ml of saline. The vehicles for compound dissolution were tested before the first dose of each drug. The compounds were administered in a cumulative way, with a 30-minute interval between doses. ICP (mmHg) was measured at the peak effect after the administration of the compounds. The duration of tumescence (DT, min) was measured from the beginning of the rise of ICP over its basal value up to the return to baseline. The systolic blood pressure and diastolic blood pressure (mmHg) were measured at the peak effect after the administration of compounds, in order to evaluate the effects of the compounds on BP independently from the effects on ICP. Moreover, the systolic blood pressure was measured at the time of maximal ICP value after intracavernous injection, to evaluate the ICP/BP ratios. […] The data were reported as mean ±s.e. of the mean, or percent variation (±s.e.) of the basal values.

bovine α1a-adrenoceptor = molecular target: T4, bovine α1a-adrenoceptor (Bos taurus, UniProt P18130); assay: [3H]Prazosin binding, bovine α1a-adrenoceptor in COS-7 cell membranes
T4 construct: expressed in transfected cells; host or cells: COS-7 cells (transient), membranes
T4 sequence (P18130 1-466): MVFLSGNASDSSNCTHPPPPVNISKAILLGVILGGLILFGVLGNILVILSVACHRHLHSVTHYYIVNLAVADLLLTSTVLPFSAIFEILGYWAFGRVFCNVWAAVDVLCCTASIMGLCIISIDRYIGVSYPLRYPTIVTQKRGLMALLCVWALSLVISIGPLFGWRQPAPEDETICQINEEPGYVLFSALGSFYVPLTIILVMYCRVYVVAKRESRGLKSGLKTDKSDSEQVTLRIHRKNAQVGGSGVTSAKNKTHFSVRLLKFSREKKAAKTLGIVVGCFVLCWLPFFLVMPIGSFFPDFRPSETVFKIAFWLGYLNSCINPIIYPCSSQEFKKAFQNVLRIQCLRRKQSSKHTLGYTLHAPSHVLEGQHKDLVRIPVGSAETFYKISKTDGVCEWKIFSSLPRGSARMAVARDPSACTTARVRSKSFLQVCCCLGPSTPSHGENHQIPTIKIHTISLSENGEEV
Experimental: The incubation was stopped by addition of ice-cold Tris buffer and rapid filtration through 0.2% polyethyleneimine pretreated Whatman GF/B or Schleicher & Schuell GF52 filters.
as §2

anaesthetised dogs [2] = settings: dog, in vivo
Experimental: as §3

Ki (human α1b-adrenoceptor) | Compound | BP (anaesthetised rats; 10 μg/kg intracavernous) | ICP (anaesthetised rats; 10 μg/kg intracavernous) | BP (anaesthetised rats; 30 μg/kg intracavernous) | ICP (anaesthetised rats; 30 μg/kg intracavernous) | BP (anaesthetised rats; 100 μg/kg intracavernous) | ICP (anaesthetised rats; 100 μg/kg intracavernous) | BP (anaesthetised rats; 300 μg/kg intracavernous) | ICP (anaesthetised rats; 300 μg/kg intracavernous) | BP (anaesthetised rats; 1000 μg/kg intracavernous) | ICP (anaesthetised rats; 1000 μg/kg intracavernous) | decrease of blood pressure (anaesthetised rats) | effect on ICP (in words) (anaesthetised rats) | hypotension (in words, FIG. 1) (anaesthetised rats) | ICP (anaesthetised dogs [1]; 30 μg/kg intracavernous) | ICP (anaesthetised dogs [1]; 300 μg/kg intracavernous) | increase of ICP in comparison with basal ICP values (anaesthetised dogs [1]) | ICP (anaesthetised dogs [1]; 1000 μg/kg intracavernous) | effect on ICP (in words) (anaesthetised dogs [1]) | hypotension (in words) (anaesthetised dogs [2]) | further results
0.16 nM | COc1cc2nc(N3CCN(C(=O)COc4c(OC)cccc4C(C)C)C4CCCCC43)nc(N)c2cc1OC (racemic) [Example 4, 4-Amino-6,7-dimethoxy-2-[(±)-4-(2-isopropyl-6-methoxyphenoxyacetyl)-cis-octahydro-1-quinoxalinyl]quinazoline hydrochloride.2.5H2O] |  |  |  |  |  |  |  |  |  |  |  |  |  |  |  |  |  |  |  | 
0.24 nM | COc1cc2nc(N3CCN(C(=O)c4ccc(C)o4)C4CCCCC43)nc(N)c2cc1OC (racemic) [Example 5, 4-Amino-6,7-dimethoxy-2-[(±)-4-(5-methyl-2-furoyl)-cis-octahydro-1-quinoxalinyl]-quinazoline hydrochloride.2.5H2O] |  |  |  |  |  |  |  |  |  |  |  |  |  |  |  |  |  |  |  | 
0.65 nM | COc1cc2nc(N3CCN(C(=O)OCc4ccccc4)C4CCCCC43)nc(N)c2cc1OC (racemic) [Example 7, 4-Amino-6,7-dimethoxy-2-[(±)-4-benzyloxycarbonyl-cis-octahydro-1-quinoxalinyl]-quinazoline hydrochloride.0.75H2O] |  |  |  |  |  |  |  |  |  |  |  |  |  |  |  |  |  |  |  | 
1.76 nM | COc1cc2nc(N3CCN(C(=O)c4ccco4)[C@H](C(=O)NC(C)(C)C)C3)nc(N)c2cc1OC [Compound C, 4-Amino-6,7-dimethoxy-2-[(3S)-3-(t-butylcarbamoyl)-4-(2-furoyl)-1-piperazinyl]-quinazoline] |  |  |  |  |  |  |  |  |  |  |  |  |  |  |  |  |  |  |  | Ki (human α1d-adrenoceptor): 25.1 nM; Ki (human α1a-adrenoceptor): 94.1 nM
 | Cc1ccc(N(CC2=NCCN2)c2cccc(O)c2)cc1 [Phentolamine] | 79.8 ± 7.3 mmHg | 12.6 ± 1.7 mmHg | 72.2 ± 4.3 mmHg | 10.1 ± 1.4 mmHg | 61.1 ± 7.0 mmHg | 10.5 ± 1.4 mmHg | 63.0 ± 2.2 mmHg | 12.5 ± 2.3 mmHg | 59.8 ± 3.6 mmHg | 20.6 ± 2.1 mmHg | 30% | did not modify ICP up to 300 μg/kg | marked hypotension | 20.0 ± 2.3 mmHg | 16.0 ± 2.3 mmHg | 43 mmHg | 62.7 ± 24.3 mmHg | increased ICP at doses that induced substained hypotension | relevant hypotension | ICP (anaesthetised dogs [1]; 10 μg/kg intracavernous): 24.0 ± 0.0 mmHg; DT (duration of tumescence) (anaesthetised dogs [1]; 1000 μg/kg intracavernous): 4.2 ± 2.1 min; Ki (bovine α1a-adrenoceptor): 3.22 nM
 | COc1cc2nc(N3CCN(C(=O)c4ccco4)CC3)nc(N)c2cc1OC [Prazosin] | 59.4 ± 7.7 mmHg | 20.1 ± 6.4 mmHg | 60.0 ± 7.4 mmHg | 14.9 ± 3.3 mmHg | 56.8 ± 7.9 mmHg | 19.0 ± 6.6 mmHg | 41.3 ± 3.0 mmHg | 18.9 ± 6.8 mmHg | 43.7 ± 4.1 mmHg | 26.9 ± 3.5 mmHg | 41% | unable to elicit any ICP increase | marked hypotension | 25.5 ± 6.3 mmHg | 37.5 ± 5.0 mmHg | 36 mmHg | 52.5 ± 5.0 mmHg | increased ICP at doses that induced substained hypotension | marked hypotension | ICP (anaesthetised dogs [1]; 100 μg/kg intracavernous): 27.0 ± 8.7 mmHg; decrease of diastolic blood pressure (anaesthetised dogs [1]; 1000 μg intracavernous): 71 mmHg
